Literature values in patent US20100125067A1, “SULFONAMIDE INHIBITORS OF CARBONIC ANHYDRASE II” (AUSPEX PHARMACEUTICALS, INC., priority 2008, published 2010).

How the values were obtained:
[1] = biological target: carbonic anhydrase I (Homo sapiens, UniProt P00915); settings: as compared to the parent compound dorzolamide
[2] = biological target: carbonic anhydrase II (Homo sapiens, UniProt P00918); settings: as compared to the parent compound dorzolamide

carbonic anhydrase I, sequence (P00915 whole entry, species assumed): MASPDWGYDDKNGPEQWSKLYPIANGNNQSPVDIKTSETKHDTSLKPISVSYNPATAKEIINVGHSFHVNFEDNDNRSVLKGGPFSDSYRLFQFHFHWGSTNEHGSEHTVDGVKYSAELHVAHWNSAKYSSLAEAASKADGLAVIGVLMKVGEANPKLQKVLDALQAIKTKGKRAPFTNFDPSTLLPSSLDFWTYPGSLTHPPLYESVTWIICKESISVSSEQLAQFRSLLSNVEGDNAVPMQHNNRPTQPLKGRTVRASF

potency as inhibitor of carbonic anhydrase I [1]: more potent inhibitor
potency as inhibitor of carbonic anhydrase II [2]: less potent inhibitor
Compound: CC1CC(N)c2cc(S(N)(=O)=O)sc2S1(=O)=O (centres unmarked) [N-de-ethylated metabolite]
